Tests used:
Flag-BCL-10 = molecular target: T1, Flag-BCL-10 (Homo sapiens, UniProt O95999); experiment: competition of free emodin against pull-down by emodin-Sepharose, anti-Flag western blot; assay type: biochemical; settings: 100 µM free emodin; HEK293T lysate, pH 7.4, 4 °C
T1 construct: gene BCL10; Flag-tagged, overexpressed in HEK293T, cell lysate; plasmid section instead says N-terminal 'Streptococcus' tag in pCDH-EF1-MCS-T2A-Puro
T1 sequence (O95999 1-233): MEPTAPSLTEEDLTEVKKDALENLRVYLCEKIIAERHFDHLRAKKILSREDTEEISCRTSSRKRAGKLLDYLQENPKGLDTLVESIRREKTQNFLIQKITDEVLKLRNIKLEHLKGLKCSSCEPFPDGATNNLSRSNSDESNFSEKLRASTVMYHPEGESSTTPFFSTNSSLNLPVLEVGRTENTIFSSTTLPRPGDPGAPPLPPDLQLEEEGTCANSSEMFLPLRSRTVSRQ

[1] = molecular target: T2, rhBCL-10 (recombinant human BCL-10) (Homo sapiens, UniProt O95999); experiment: thermal shift, soluble protein by western blot; assay type: binding; settings: 100 µM emodin, 37-67 °C; text says recombinant BCL-10, methods describe lysate of PMA-treated HL-60 cells
T2 construct: gene BCL10; recombinant human protein, amine-coupled on sensor chip for SPR
T2 sequence (O95999 1-233): T1 sequence (O95999 1-233)

[2] = molecular target: T2, rhBCL-10 (recombinant human BCL-10); experiment: SPR (Biacore T200), global […] Langmuir kinetic fit; assay type: binding

Kd [2]: 1940 nM
SMILES: Cc1cc(O)c2c(c1)C(=O)c1cc(O)cc(O)c1C2=O [Emodin]
competition of free emodin against pull-down by emodin-Sepharose, anti-Flag west (Flag-BCL-10): free Emodin competitively inhibited the binding of Flag-BCL-10 to Emodin-Sepharose
thermal stabilisation [1]: Emodin binding significantly enhances BCL-10′s thermal resistance

From publication PMC12591137, “Emodin Alleviates Sepsis‐Induced Multiorgan Damage by Inhibiting NETosis through Targeting Neutrophils BCL‐10” (Advanced Science, 2025)
